Experiments:
Assay type in all cases: in vivo
[1] = tested on: barnyardgrass (Echinochloa crus-galli); assay: Test A pre-/postemergence plant response
Procedure, shortened: (§1)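 Seeds in loam soil/sand blend treated preemergence by directed soil spray, with simultaneous postemergence spray on 2–10 cm plants at one- to two-leaf stage; compounds in non-phytotoxic solvent with surfactant. Injury visually rated versus untreated controls after about 10 days in greenhouse, 0 (no effect) to 100 (complete control).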

[2] = tested on: corn (Zea mays); assay: Test A pre-/postemergence plant response
Procedure, shortened: as §1

[3] = tested on: large crabgrass (Digitaria sanguinalis); assay: Test A pre-/postemergence plant response
Procedure, shortened: as §1

[4] = tested on: morningglory (Ipomoea coccinea); assay: Test A pre-/postemergence plant response
Procedure, shortened: as §1

[5] = tested on: pigweed (Amaranthus retroflexus); assay: Test A pre-/postemergence plant response
Procedure, shortened: as §1

[6] = tested on: velvetleaf (Abutilon theophrasti); assay: Test A pre-/postemergence plant response
Procedure, shortened: as §1

[7] = tested on: wheat (Triticum aestivum); assay: Test A pre-/postemergence plant response
Procedure, shortened: as §1

[8] = tested on: canarygrass (Phalaris minor); assay: Test B postemergence plant response; conditions: for Plant response rating, Canarygrass: Postemergence
Procedure, shortened: (§2)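 Postemergence greenhouse test; plants at 2 to 18 cm (1- to 4-leaf stage) given formulated test chemical, held 13 to 15 days, then visually rated against untreated controls on a 0 (no effect) to 100 (complete control) scale; dash means no result.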

[9] = tested on: chickweed (Stellaria media); assay: Test B postemergence plant response; conditions: for Chickweed plant response rating: 8 g ai/ha, postemergence, 0-100 scale; for Plant response rating, Chickweed: Postemergence
Procedure, shortened: as §2

[10] = tested on: windgrass (Apera spica-venti); assay: Test B postemergence plant response; conditions: for Windgrass plant response rating: postemergence, 0-100 scale; for Plant response rating, Windgrass: Postemergence
Procedure, shortened: as §2

[11] = tested on: winter barley (Hordeum vulgare); assay: Test B postemergence plant response; conditions: for Plant response rating, Barley: Postemergence, scale 0 to 100, 0 no effect, 100 complete control
Procedure, shortened: as §2

[12] = tested on: barnyardgrass (Echinochloa crus-galli); assay: Test B flooded paddy test plant response
Procedure, shortened: (§3)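 Paddy-water application to 2-leaf plants in pots held under 3 cm of flooding; response is a 0–100 visual control rating against controls after 13 to 15 days, and a dash marks a missing result.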

[13] = tested on: ducksalad (Heteranthera limosa); assay: Test B flooded paddy test plant response
Procedure, shortened: as §3

[14] = tested on: rice (Oryza sativa); assay: Test B flooded paddy test plant response
Procedure, shortened: as §3

[15] = tested on: umbrella sedge (Cyperus difformis); assay: Test B flooded paddy test plant response
Procedure, shortened: as §3

[16] = Postemergence, 31 g ai/ha, 0 to 100 scale (0 no effect, 100 complete control)
[17] = Postemergence, 125 g ai/ha, 0 to 100 scale, 0 no effect, 100 complete control
[18] = Preemergence, 31 g ai/ha, 0 to 100 scale, 0 is no effect, 100 is complete control
[19] = Preemergence, 125 g ai/ha, 0 to 100 scale (0 no effect, 100 complete control)
[20] = 31 g ai/ha, scale 0 to 100, 0 no effect, 100 complete control
[21] = 62 g ai/ha, scale 0 to 100, 0 no effect, 100 complete control
[22] = Flood (flooded paddy test), 62 g ai/ha, scale 0 to 100, 0 no effect, 100 complete control
[23] = Flood (flooded paddy test), 125 g ai/ha, scale 0 to 100, 0 no effect, 100 complete control
[24] = Flood (flooded paddy test), 250 g ai/ha, scale 0 to 100, 0 no effect, 100 complete control
[25] = Flood, 31 g ai/ha, scale 0 to 100
[26] = 8 g ai/ha, postemergence, 0-100 scale

CCc1cc(-c2ccc(Cl)cc2)nn1-c1c(OC(=O)OC(C)C)cnn(C)c1=O [Compound 41]
40: Plant response rating, Ducksalad [13, 23]
95: Plant response rating, Barnyardgrass [12, 24]
0: Plant response rating, Morningglory [4, 16] | Plant response rating, Morningglory [4, 17] | Plant response rating, Morningglory [4, 18] | Plant response rating, Morningglory [4, 19] | Plant response rating, Pigweed [5, 16] | Plant response rating, Pigweed [5, 17] | Plant response rating, Pigweed [5, 18] | Plant response rating, Pigweed [5, 19] | Plant response rating, Velvetleaf [6, 16] | Plant response rating, Velvetleaf [6, 17] | Plant response rating, Velvetleaf [6, 18] | Plant response rating, Velvetleaf [6, 19] | Plant response rating, Canarygrass ([8]; 16 g ai/ha, scale 0 to 100) | Plant response rating, Canarygrass [8, 20] | Plant response rating, Canarygrass [8, 21] | Chickweed plant response rating [9] | Plant response rating, Chickweed ([9]; 16 g ai/ha, scale 0 to 100) | Plant response rating, Chickweed [9, 20] | Plant response rating, Chickweed [9, 21] | Plant response rating, Barley ([11]; 16 g ai/ha) | Plant response rating, Barley ([11]; 31 g ai/ha) | Plant response rating, Barley ([11]; 62 g ai/ha) | Plant response rating, Ducksalad [13, 22] | Plant response rating, Ducksalad [13, 25] | Plant response rating, Sedge, Umbrella [15, 22] | Plant response rating, Sedge, Umbrella [15, 23] | Plant response rating, Sedge, Umbrella [15, 25]
30: Plant response rating, Corn [2, 18] | Windgrass plant response rating ([10]; 8 g ai/ha)
15: Plant response rating, Rice [14, 25]
70: Plant response rating, Wheat [7, 17] | Plant response rating, Ducksalad [13, 24]
85: Plant response rating, Windgrass [10, 21] | Plant response rating, Sedge, Umbrella [15, 24]
100: Plant response rating, Barnyardgrass [1, 17] | Plant response rating, Barnyardgrass [1, 18] | Plant response rating, Barnyardgrass [1, 19] | Plant response rating, Crabgrass, Large [3, 19]
80: Plant response rating, Barnyardgrass [1, 16] | Plant response rating, Crabgrass, Large [3, 18] | Plant response rating, Wheat [7, 19] | Plant response rating, Barnyardgrass [12, 23] | Plant response rating, Rice [14, 24]
75: Plant response rating, Barnyardgrass [12, 22]
90: Plant response rating, Corn [2, 17] | Plant response rating, Corn [2, 19] | Plant response rating, Crabgrass, Large [3, 17]
20: Plant response rating, Crabgrass, Large [3, 16] | Plant response rating, Rice [14, 22]
60: Plant response rating, Corn [2, 16] | Plant response rating, Wheat [7, 16] | Plant response rating, Windgrass ([10]; 16 g ai/ha, scale 0 to 100) | Plant response rating, Barnyardgrass [12, 25]
50: Plant response rating, Wheat [7, 18] | Plant response rating, Rice [14, 23]

CCc1cc(-c2ccc(C(F)(F)F)cc2)nn1-c1c(O)cnn(CC)c1=O [Compound 67]
80: Plant response rating, Corn [2, 19] | Plant response rating, Crabgrass, Large [3, 16] | Plant response rating, Canarygrass ([8]; 16 g ai/ha, scale 0 to 100)
90: Plant response rating, Corn [2, 16] | Plant response rating, Crabgrass, Large [3, 19] | Plant response rating, Wheat [7, 16] | Plant response rating, Wheat [7, 19]
35: Barley plant response rating [11, 26] | Plant response rating, Barnyardgrass [12, 23]
85: Plant response rating, Barley ([11]; 16 g ai/ha)
75: Plant response rating, Ducksalad [13, 24]
100: Plant response rating, Barnyardgrass [1, 16] | Plant response rating, Barnyardgrass [1, 17] | Plant response rating, Barnyardgrass [1, 19] | Plant response rating, Corn [2, 17] | Plant response rating, Crabgrass, Large [3, 17] | Plant response rating, Wheat [7, 17] | Windgrass plant response rating ([10]; 16 g ai/ha) | Plant response rating, Windgrass ([10]; 31 g ai/ha, scale 0 to 100) | Plant response rating, Windgrass [10, 21]
20: Plant response rating, Corn [2, 18] | Plant response rating, Crabgrass, Large [3, 18] | Plant response rating, Wheat [7, 18]
50: Canarygrass plant response rating [8, 26] | Plant response rating, Barnyardgrass [12, 24]
95: Plant response rating, Canarygrass ([8]; 31 g ai/ha, scale 0 to 100) | Windgrass plant response rating ([10]; 8 g ai/ha) | Plant response rating, Barley ([11]; 31 g ai/ha)
25: Plant response rating, Barnyardgrass [12, 22]
0: Plant response rating, Barnyardgrass [1, 18] | Plant response rating, Morningglory [4, 16] | Plant response rating, Morningglory [4, 17] | Plant response rating, Morningglory [4, 18] | Plant response rating, Morningglory [4, 19] | Plant response rating, Pigweed [5, 16] | Plant response rating, Pigweed [5, 17] | Plant response rating, Pigweed [5, 18] | Plant response rating, Pigweed [5, 19] | Plant response rating, Velvetleaf [6, 16] | Plant response rating, Velvetleaf [6, 17] | Plant response rating, Velvetleaf [6, 18] | Plant response rating, Velvetleaf [6, 19] | Chickweed plant response rating [9] | Plant response rating, Chickweed ([9]; 16 g ai/ha, scale 0 to 100) | Plant response rating, Chickweed ([9]; 31 g ai/ha, scale 0 to 100) | Plant response rating, Chickweed [9, 21] | Plant response rating, Barnyardgrass [12, 25] | Plant response rating, Ducksalad [13, 22] | Plant response rating, Ducksalad [13, 23] | Plant response rating, Ducksalad [13, 25] | Plant response rating, Rice [14, 22] | Plant response rating, Rice [14, 23] | Plant response rating, Rice [14, 25] | Plant response rating, Sedge, Umbrella [15, 22] | Plant response rating, Sedge, Umbrella [15, 23] | Plant response rating, Sedge, Umbrella [15, 24] | Plant response rating, Sedge, Umbrella [15, 25]
15: Plant response rating, Rice [14, 24]

Source: patent US20100267561A1, “HERBICIDAL PYRIDAZINONE DERIVATIVES” (priority 2007, published 2010)
